Assay [1] deals with EMT6. Put plainly: Tested for 50% inhibition against EMT-6 murine mammary carcinoma cell under hypoxia condition. Type of assay: functional, cell-based. To be noted: Mus musculus.
Assay [2] concerns EMT6. The experiment in a line: Tested for 50% inhibition against EMT-6 murine mammary carcinoma cell under normal oxygenated condition. To be noted: Mus musculus. Type of assay: functional, cell-based.
In assay [3] the test system is EMT6. The experiment in a line: Tested for 90% inhibition against EMT-6 murine mammary carcinoma cell under hypoxia condition. Format: functional. The settings on record: Mus musculus.
Assay [4] deals with EMT6. Put plainly: Tested for 90% inhibition against EMT-6 murine mammary carcinoma cell under normal oxygenated condition. Format: functional. The settings on record: Mus musculus.
Assay [5] relates to Mus musculus. Put plainly: Increase in life span of animals bearing L1210 leukemia after ip administration at a dose of 0.50 mg/kg. Format: functional. To be noted: route intraperitoneal.
The subject of assay [6] is Mus musculus. Put plainly: Increase in life span of animals bearing L1210 leukemia after ip administration at a dose of 1.00 mg/kg. Type of assay: functional. The settings on record: route intraperitoneal.
Assay [7] concerns Mus musculus. Put plainly: Increase in life span of animals bearing L1210 leukemia after ip administration at a dose of 1.25 mg/kg. Type of assay: functional. To be noted: route intraperitoneal.
In assay [8] the test system is Mus musculus. The experiment in a line: Increase in life span of animals bearing L1210 leukemia after ip administration at a dose of 1.50 mg/kg. Type of assay: functional. The settings on record: route intraperitoneal.
Assay [9] relates to Mus musculus. The experiment in a line: Increase in life span of animals bearing L1210 leukemia after ip administration at a dose of 2.00 mg/kg. Type of assay: functional. The settings on record: route intraperitoneal.
Assay [10] concerns Mus musculus. Put plainly: Increase in life span of animals bearing L1210 leukemia after ip administration at a dose of 2.50 mg/kg; Toxic. Type of assay: functional, organism-based. More on the design: dose 2.5 mg/kg.
The test system of assay [11] is Mus musculus. The experiment in a line: Survival days at a dose of 0.50 mg/kg after ip administration on days 1-5. Format: functional. The settings on record: dose 0.5 mg/kg; route intraperitoneal.
The subject of assay [12] is Mus musculus. The experiment in a line: Survival days at a dose of 1.00 mg/kg after ip administration on days 1-5. Type of assay: functional. The settings on record: route intraperitoneal.
The subject of assay [13] is Mus musculus. The experiment in a line: Survival days at a dose of 1.25 mg/kg after ip administration on days 1-5. Format: functional. To be noted: route intraperitoneal.
Assay [14] has as its system Mus musculus. The experiment in a line: Survival days at a dose of 1.50 mg/kg after ip administration on days 1-5. Format: functional. The settings on record: dose 1.5 mg/kg; route intraperitoneal.
For assay [15], the system named is Mus musculus. Put plainly: Survival days at a dose of 2.00 mg/kg after ip administration on days 1-5. To be noted: route intraperitoneal. Type of assay: functional.
Assay [16] relates to Mus musculus. The experiment in a line: Survival days at a dose of 2.50 mg/kg after ip administration on days 1-5. Type of assay: functional. The settings on record: dose 2.5 mg/kg; route intraperitoneal.

pIC50: −log10 of the molar value.

The term pIC50 denotes −log10 of the IC50, conventionally taken in molar units. Read a low pIC50 as a large IC50. As a reminder, the IC90 is the point of the concentration-response curve where the effect stands at 90%. Read a high IC90 as a need for much substance. With `O=C1C=C(N2CCCC2)C(N2CCCC2)=CC1=O`, the pIC50 in the assay on EMT6 [1] and in the assay with EMT6 [2] was less than 3.30 in each case. The 90% effect concentration (IC90) in the assay with EMT6 [3] and in the assay with EMT6 [4] was greater than 500 µM each time.
With `COC1=CC(=O)C(O)=C/C1=N\CCCl`, the pIC50 with EMT6 [1] is 3.96; in the assay on EMT6 [2], 3.90. For the same molecule, the results for the IC90 in the assay on EMT6 [3] and with EMT6 [4] were 190 µM and 455 µM, respectively.
For `CCOC(=O)NC1=C(N2CC2)C(=O)C(NC(=O)OCC)=C(N2CC2)C1=O` [DIAZIQUONE], the pIC50 with EMT6 [1] was 5.12; in the assay on EMT6 [2], 5.30.
Broadly, the ILS is how much longer treated animals lived than controls. On to `O=C1C=C(N2CC2)C(N2CC2)=CC1=O`, for which the pIC50 was 6.70 with EMT6 [1] and 6.40 with EMT6 [2]. Also, the IC90 in the assay on EMT6 [3] was found to be 1 µM; in the assay with EMT6 [4] it was 1.1 µM. This molecule also returned an ILS at 0.5 mg/kg in the assay on Mus musculus [5] of 70%. The ILS at 1 mg/kg in the assay on Mus musculus [6] stood at 81%. In addition, the ILS at 1.25 mg/kg in the assay with Mus musculus [7] was found to be 84%. This molecule also yielded an ILS at 1.5 mg/kg in the assay with Mus musculus [8] of 86%. In addition, the ILS at 2 mg/kg in the assay with Mus musculus [9] is 59%. For the same molecule, the increase in life span (ILS) result in the assay with Mus musculus [10] is “Toxic”. The Survival days in the assay on Mus musculus [11] came to 12.6; in the assay on Mus musculus [12], 13.4; in the assay on Mus musculus [13], 13.6; in the assay on Mus musculus [14], 13.8; in the assay with Mus musculus [15] it was 11.8; with Mus musculus [16] it was 6.
Regarding `COC1=CC(=O)C(=O)C=C1OC`, the pIC50 with EMT6 [1] is less than 3.30; in the assay on EMT6 [2], 3.30. In addition, the IC90 in the assay with EMT6 [3] and in the assay on EMT6 [4] was greater than 500 µM in each case.
With `CCN(CC)C1=CC(=O)C(=O)C=C1N(CC)CC`, the pIC50 with EMT6 [1] was 3.40; in the assay with EMT6 [2] it was 3.30. Besides, the IC90 with EMT6 [3] and with EMT6 [4] was greater than 500 µM throughout.
Consider `O=C1C=C(N2CCC2)C(N2CCC2)=CC1=O`, for which the pIC50 in the assay on EMT6 [1] is 3.40; in the assay with EMT6 [2], 3.30. In addition, the IC90 in the assay on EMT6 [3] and with EMT6 [4] was greater than 500 µM in each case.

(Values after ChEMBL document CHEMBL1126716, “Synthesis and evaluation of the antitumor activity of 4,5-diamino-substituted 1,2-benzoquinones” (J Med Chem, 1993).)
